# Reference: patent US20250339450A1, “TREATMENT OF SYNGAP1 ENCEPHALOPATHY” (Harmony Biosciences Management, Inc., priority 2019, published 2025)
# Test system: patients with SYNGAP1
# Assay: Four patients with SYNGAP1 in Study ZYN2-CL-025 (BELIEVE)
# Format: in vivo, human
# Details: SYNGAP1 encephalopathy patients; across the 26-week treatment period; transdermal
# Excerpt: The trial summarized in the examples—a Phase 2 open label clinical trial—assessed the safety and efficacy of transdermal administration of CBD in a heterogeneous group of SYNGAP1 encephalopathy and other rare developmental and epileptic encephalopathies (DEEs), including but not limited to Dravet Syndrome (DS) and Lennox-Gastaut Syndrome (LGS). Some of the most common and debilitating SYNGAP1 encephalopathy seizure types are focal impaired-awareness and convulsive seizures. Patients with SYNGAP1 encephalopathy who experienced these seizure types, such as SYNGAP1 seizures, experienced seizure reductions of up to 73% across the 26-week treatment period. Qualitative assessments by caregivers in the study indicate improved behavioral problems including improved mood, engagement with others, learning ability, alertness, school attendance, as well as cognitive symptoms.
# This was a sequential, multi-stage, open-label, multi-national, multiple-center, multiple-dose study to assess the long-term safety and tolerability of ZYN002 (transdermal CBD gel) in child and adolescent epilepsy patients from 3 to 18 years of age having seizures associated with developmental and epileptic encephalopathies (DEE) according to the International League Against Epilepsy (ILEA) classification (Scheffer et al. 2017). […]
structure (smiles),measurement,value
"C=C(C)C1CCC(C)=CC1c1c(O)cc(CCCCC)cc1O (stereo not shown) [CBD, 2-[3-methyl-6-(1-methylethenyl)-2-cyclohexen-1-yl]-5-pentyl-1,3-benzenediol]",seizure reductions,up to 73%
